In patent US9670223B2, “Compounds with super-aspirin effects” (SOLVOTRIN THERAPEUTICS LTD., priority 2011, dated 2017):
Where two headings read alike, the source gives them in different places.

Key:
[1] = system: washed platelets (WP); experiment: Collagen-induced platelet aggregation in washed platelets (light aggregometry); format: cell-based, human; conditions: WP, collagen 2 μg/ml, PMSF up to 100 μM
Experimental: (§1) PRP and WP (2.5×10^8 platelets ml^−1) were prepared from blood. Briefly 36 ml whole blood was collected into 4 ml of 3.15% sodium citrate; this was centrifuged at 250 ¥g for 20 min (with gentle acceleration and deceleration). At this point PRP, which had separated from white blood cells and red blood cells, was gently removed. When WP were required this PRP was centrifuged at 700 g for 10 min (with gentle acceleration and deceleration) in the presence of prostacyclin. The platelet-poor plasma (PPP) was removed and the platelet pellet was washed three times with Tyrode's buffer, before being re-suspended in Tyrode's buffer to a concentration of 2.5 ¥108 platelets/ml.
(§2) Platelet aggregation was measured by light aggregometry. […] Aggregation was initiated by the addition of agonists, and monitored by Aggro-Link software for at least 6 min.
(§3) To study the aggregatory potency of ADP, the concentration-response (0.3-10 μM) curves were generated. Collagen at different concentrations (2-5 μg/ml) was also used to induce platelet aggregation. Submaximal concentrations of agonists, i.e. the concentrations that gave approximately 95% of the maximal aggregation were used to study the effects of inhibitors of aggregation. Aspirin and aspirin prodrugs was incubated for various intervals prior to the addition of aggregating agents.
To study the involvement of plasma BuChE in the activation of ST0701, purified BuChE (3 U/ml) was incubated with WP for 5 min in the aggregometer with stirring at 900 r.p.m. before the addition of the test compounds ST0701 which was incubated with the WP for a further 10 min, prior to the addition of collagen (5 ug/ml).
(§4) Eserine (in DMSO, 10 μM, giving a final concentration≦0.25% DMSO, which pilot studies had determined not to affect platelet aggregation) was preincubated with PRP or WP for 5 min in the aggregometer with stirring at 900 r.p.m. before the addition of test compounds (ST0701-05), which were incubated in PRP or WP for a further 10 min prior to the addition of an agonist (10 μM ADP or 5 μg/ml Collagen) to induce platelet aggregation.
Phenylmethylsulphonylfluoride (PMSF) 20, 50 and 100 μM dissolved in EtOH (<0.2% EtOH, which pilot studies had determined not to affect platelet aggregation) was preincubated in WP in the aggregometer for 5 min with stirring at 900 r.p.m. before the addition of test compound ST0702 to the WP, which was further incubated for 10 min prior to the addition of collagen (2 μg/ml) to induce platelet aggregation.

[2] = system: platelet esterases (pNPA hydrolysis in WP); format: biochemical, human; conditions: for effect on NPA/PNA activity of WP or lysed platelets: 10-100 μM
Experimental: WP, PRP, PPP or lysed WP and 50 mM TrisHCl pH7.4 were incubated on a 96 well plate at 37° C. for 30 min. PNA at a final concentration of 3 mM was added to the plate and the change in absorbance at 405 nm was measured over a period of 10 min.
NPA hydrolyse activity could be due to CE (EC 3.1.1.1), BuChE, acetylcholinesterase (AChE, EC 3.1.1.7) or paraoxanase/arylesterase (PON, EC 3.1.8.1). To identify which esterases were involved in the hydrolysis of PNA, various inhibitors were incubated with the WP, PRP, PPP or lysed WP and 50 mM TrisHCl pH7.4 for 30 min at 37° C. prior to the addition of the PNA and the measurement of the change in absorbance at 405 nm. Physostigmine (100 μM), a cholinesterase inhibitor was used to check if BuChE/AChE played a role in the hydrolysis of PNA. […] PMSF (10-100 μM) was used to determine if serine proteases played any part in the hydrolysis of PNA by platelets. EDTA a calcium chelator was used to investigate the role played by PON esterases. BNPP a CE inhibitor of was used to investigate if carboxylesterases played a role in hydrolysis of PNA by platelets.

[3] = system: 59M cells; experiment: Tumour cell-induced platelet aggregation (TCIPA), static conditions, 59M; format: cell-based, human; conditions: static, WP, 300 and 500 μM, 59M 1×10^3/ml
Excerpt: ISAS meanwhile is hydrolysed to aspirin and salicylic acid. […] The structure of platelet-tumor cell aggregates was studied using phase-contrast microscopy (Alonso-Escolano et al., 2004; Jurasz et al., 2001). […] Aliquots of each sample were then taken for phase-contrast microscopy examination using an Olympus CKX41 microscope (Olympus America Inc., […].). Photomicrographs were captured using a digital camera and MicroFire (Olympus America Inc.) software (Alonso-Escolano et al., 2004; Jurasz et al., 2001).

[4] = system: 59M cells; experiment: Flow-mediated TCIPA using an ultrasound standing wave trap; format: cell-based, human; conditions: 500 μM, 59M cell cluster
Excerpt: The ultrasound trap had three essential features: a transducer (Ferroperm, Kvistgard, Denmark) in a housing of radial symmetry, an aqueous phase and a reflector that provided optical access from above. The trap was driven with a function generator (Hewlett Packard 33120A, UK). Microscopic observation occurred with a fast, high-resolution XM10 camera (Soft Imaging System, SIS, GmbH) mounted on an Olympus BX51M reflection epi-fluorescence microscope. Images were captured by a standard PC equipped with the Cell-D image acquisition software (Soft Imaging System, SIS, GmbH).
The experimental procedure was as follows: 59M cells were introduced into the trap, the acoustic field (2.13 MHz, 0.85 MPa) was initiated and cell clusters were allowed to form. Clusters remained levitated in suspension for 10 min. Washed platelets (2.5×10^8/ml) were introduced into the trap at a flow rate of 3 μl/min. Perfusion of washed platelets around the cluster proceeded following initial adhesion of platelets to the periphery of the cluster.
To study the effect of aspirin and aspirin prodrugs in TCIPA, washed platelets were pre-incubated for 10 min at room temperature with the inhibitors: aspirin, nicotinate, ISAS, ISMNA, ortho and meta (all at a concentration of 500 μM), prior to their introduction into the ultrasound trap. […] The cell cluster-platelet aggregate remained under microscopic observation for further 10 min (the upper time limit established in the current study) under continuous flow conditions. Further experiments were performed with ST0702 salicylate (500 μM).

[5] = system: P-selectin; experiment: Flow cytometry of platelet P-selectin during TCIPA induced by 59M cells; format: cell-based, human; conditions: 300 μM
[6] = system: platelet rich plasma (PRP); experiment: ADP-induced platelet aggregation in PRP; format: cell-based, human; conditions: ODQ 10 μM, ADP 10 μM, PRP
Experimental: as §1, §2, §3, §4
1H-[1,2,4]Oxadiazolo[4,3-a]quinoxalin-1-one (ODQ, dissolved in 100% DMSO, used at a final concentration of 10 μM, which gave a final concentration not more than 0.25% DMSO) was preincubated with PRP or WP for 5 min in the aggregometer with stirring at 900 r.p.m. before the addition of test compounds (ST0701-05), which were incubated in PRP or WP for a further 10 min prior to the addition of an agonist (10 μM ADP or 5 μg/ml collagen) to induce platelet aggregation.
Eserine (10 μM) was incubated with PRP for 5 min in the aggregometer with stirring at 900 r.p.m. before the addition of test compound ST0702 salicylate (500 μM), which was incubated in PRP for a further 10 min prior to the addition of the agonist ADP (10 μM) to induce platelet aggregation.

[7] = system: platelet rich plasma (PRP); experiment: Collagen-induced platelet aggregation in platelet rich plasma (light aggregometry); format: cell-based, human; conditions: for inhibition of collagen induced aggregation by hydrolysis products: 10-300 μM in PRP, collagen 5 μg/ml
Experimental: as §1, §2, §3, §4

[8] = system: TxB2; experiment: TxB2 suppression after single oral gavage dose; format: in vivo, cynomolgus monkey; conditions: for TxB2 suppression (TxB2 levels as percentage of baseline), in words: Phase 2A, single oral gavage, ST0702 9.6 mg/kg, aspirin 4.2 mg/kg, 1 and 24 hours post dosing; for TxB2 suppression, % complete: Phase 2B, at 24 hours
[9] = Plasma pharmacokinetics of aspirin and metabolites after single oral gavage dose; format: in vivo, cynomolgus monkey
Experimental: The objectives of this study are to determine the comparative clinical efficacy as determined by TxB2 suppression with single oral gavage dose administration of Aspirin, ST0702 and ST0702 Micronised to the cynomolgus monkey. Aspirin pharmacokinetics were compared using Area Under the Curve (AUC) calculations.
The objectives of this study are to determine the comparative pharmacokinetics of ST0702 at 9.6 and 4.8 mg/Kg with single oral gavage dose administration to the cynomolgus monkey and to determine dose-response effects.
Although the half life of the Isosorbide 2 salicylate 5 nicotinate metabolite is very short in-vitro, we investigated the serum taken from Cynomologus Monkeys participating in Study 2B above. The comparative pharmacokinetics of Isosorbide 2 salicylate 5 nicotinate from Monkeys receiving a single oral gavage dose of micronized ST0702 at 9.6 and 4.8 mg/Kg were evaluated. The concentrations of the breakdown products of ISANA were quantified using LCMS methods.
Animals are acclimated to the oral gavage procedure for at least 3 days prior to the commencement of dose formulation administration. Deionized water is administered by oral gavage using a disposable catheter attached to a plastic syringe at a dose volume of 5 mL/kg. Animals are treated at approximately the same time on each dosing day. Dose formulations are administered by oral gavage using a disposable catheter attached to a plastic syringe. Following each daily dose, the gavage tube is rinsed with 6 mL of Ultra Pure water into the animal's stomach. Each animal will be dosed with a clean gavage tube on each dosing occasion. The dosing volume is 10 mL/kg. Each actual volume administered will be based on the most recent practical body weight of each animal. The dose formulations will be stirred continuously during dose administration.
Samples are mixed gently and placed on crushed wet ice until centrifugation, which are carried out as soon as practical. The samples are centrifuged for approximately 10 minutes in a refrigerated centrifuge (approximately 4° C.) at 2700 rpm. The resultant plasma are separated, transferred to uniquely labeled clear polypropylene tubes, and frozen immediately over dry ice and transferred to a freezer set to maintain −80° C. The plasma samples are transferred to the bioanalytical laboratory at the Testing Facility.
Plasma samples are analyzed for concentration of Aspirin, Salicylic Acid and Nicotinic Acid using a qualified analytical procedure. Analysis are performed by LC MS/MS under Analytical Procedure. Data collection is performed using Analyst from AB Sciex. […]

## O=S(=O)(F)Cc1ccccc1 [PMSF, phenylmethylsulphonyl fluoride]
[1]
  effect of PMSF alone on collagen-induced aggregation: no significant effect
[2]; at 10 μM
  inhibition of NPA activity in WP: 50%
[2]; at 100 μM
  inhibition of NPA activity in WP: almost completely inhibited

## CC(=O)Oc1ccccc1C(=O)O[C@H]1CO[C@H]2[C@@H]1OC[C@H]2OC(=O)c1cccc(CO[N+](=O)[O-])c1 [metanitrate]
[3]
  inhibition of TCIPA induced by 59M: inhibited
[3]; listed as Meta
  inhibition of TCIPA induced by 59M: able to inhibit
[4]
  inhibition of TCIPA under flow conditions (platelet-tumour cell disruption): did not interfere
[5]
  59M-mediated increase in platelet surface P-selectin: significantly (P<0.05, n=4) reduce

## O=c1onc2cnc3ccccc3n12 [ODQ, 1H-[1,2,4]oxadiazolo[4,3-a]quinoxalin-1-one, reference compound]
[6]
  inhibition of ADP induced aggregation when incubated alone: some inhibition

## O=C(O)CN(CCN(CC(=O)O)CC(=O)O)CC(=O)O [EDTA, ethylenediaminetetraacetic acid]
[2]
  effect on NPA activity of WP: no effect

## O=C(O[C@H]1CO[C@H]2[C@@H]1OC[C@H]2OC(=O)c1ccccc1O)c1ccccc1O [isosorbide-2,5-disalicylate]
[7]
  inhibition of collagen induced aggregation by hydrolysis products: None of the hydrolysis products significantly inhibited aggregation
[7]; co-incubated with aspirin, 50-500 μM, non-significant trend
  attenuation of aspirin's inhibitory effect on co-incubation: ≤ 10%

## CC(C)NP(=O)(NC(C)C)OP(=O)(NC(C)C)NC(C)C [Iso-OMPA, tetraisopropylpyrophosphoramide]
[2]
  effect on NPA/PNA activity of WP or lysed platelets: no effect

## CC(=O)Oc1ccccc1C(=O)OC1COC2C(OC(=O)c3cccnc3)COC12 (stereo not shown) [Micronized ST0702, isosorbide-2-aspirinate-5-nicotinate]
[8]
  TxB2 suppression (TxB2 levels as percentage of baseline), in words: no difference between aspirin and micronized ST0702
[8]; listed as micronised ISANA
  TxB2 suppression (TxB2 levels as percentage of baseline), in words: as effective as equimolar doses of aspirin
[8]; 4.8 mg/Kg oral
  TxB2 suppression, % complete: 47%
[8]; 9.6 mg/Kg oral
  TxB2 suppression, % complete: 70%
[9]; Phase 2B, Micronised ST0702 equimolar dose vs aspirin 4.2 mg/Kg
  % of aspirin AUC: 62%
[9]; Studies 2A and 2B together, relative to equivalent aspirin
  expected aspirin delivered in-vivo: 58-62%

## O[C@@H]1CO[C@H]2[C@@H]1OC[C@@H]2O [Isosorbide]
[7]
  inhibition of collagen induced aggregation by hydrolysis products: None of the hydrolysis products significantly inhibited aggregation

## O=C(O)c1ccccc1O [salicylic acid]
[7]
  inhibition of collagen induced aggregation by hydrolysis products: None of the hydrolysis products significantly inhibited aggregation

## O=[N+]([O-])c1ccc(OP(=O)(O)Oc2ccc([N+](=O)[O-])cc2)cc1 [BNPP, bis-p-nitrophylphosphate]
[2]
  effect on NPA/PNA activity of WP or lysed platelets: no significant effect

## O=C(O[C@@H]1CO[C@H]2[C@H]1OC[C@@H]2O)c1ccccc1O [isosorbide-5-salicylate]
[7]
  inhibition of collagen induced aggregation by hydrolysis products: None of the hydrolysis products significantly inhibited aggregation
